Experimental data reported in BigSolDB 2.1.

CC(C)C(N)=O
Settings	solubility (mole fraction)
in 2-butanone, 273.15 K	0.0397
in 2-butanone, 279.15 K	0.045
in 2-butanone, 284.15 K	0.0497
in 2-butanone, 289.15 K	0.0548
in 2-butanone, 293.75 K	0.0597
in 2-butanone, 299.05 K	0.0657
in 2-butanone, 303.75 K	0.0713
in 2-butanone, 308.55 K	0.0773
in 2-butanone, 313.65 K	0.0841
in 2-butanone, 318.25 K	0.0904
in 2-butanone, 323.95 K	0.0988
in THF, 273.15 K	0.0439
in THF, 279.15 K	0.0514
in THF, 284.15 K	0.0585
in THF, 289.15 K	0.0661
in THF, 293.75 K	0.0741
in THF, 299.05 K	0.0837
in THF, 303.75 K	0.093
in THF, 308.55 K	0.103
in THF, 313.65 K	0.115
in THF, 318.25 K	0.126
in THF, 323.95 K	0.141
in acetone, 273.15 K	0.00931
in acetone, 279.15 K	0.0135
in acetone, 283.95 K	0.018
in acetone, 289.15 K	0.0244
in acetone, 293.85 K	0.0317
in acetone, 299.15 K	0.0422
in acetone, 303.45 K	0.0528
in acetone, 309.05 K	0.0703
in acetone, 313.25 K	0.0857
in acetone, 319.15 K	0.114
in acetone, 324.15 K	0.143
in acetonitrile, 273.15 K	0.0122
in acetonitrile, 279.15 K	0.0166
in acetonitrile, 283.95 K	0.021
in acetonitrile, 289.15 K	0.0271
in acetonitrile, 293.85 K	0.0335
in acetonitrile, 299.15 K	0.0424
in acetonitrile, 303.45 K	0.051
in acetonitrile, 309.05 K	0.0645
in acetonitrile, 313.25 K	0.0766
in acetonitrile, 319.15 K	0.0961
in acetonitrile, 324.15 K	0.116
in chloroform, 273.15 K	0.013
in chloroform, 279.15 K	0.0176
in chloroform, 284.15 K	0.0222
in chloroform, 289.15 K	0.0282
in chloroform, 294.15 K	0.0352
in chloroform, 299.15 K	0.0436
in chloroform, 303.75 K	0.0529
in chloroform, 309.15 K	0.0656
in chloroform, 313.15 K	0.0769
in chloroform, 319.15 K	0.0968
in chloroform, 324.75 K	0.119
in cyclohexanone, 273.15 K	0.0267
in cyclohexanone, 279.15 K	0.0333
in cyclohexanone, 284.15 K	0.0398
in cyclohexanone, 289.15 K	0.0473
in cyclohexanone, 293.75 K	0.0551
in cyclohexanone, 299.05 K	0.0653
in cyclohexanone, 303.75 K	0.0756
in cyclohexanone, 308.55 K	0.0873
in cyclohexanone, 313.65 K	0.101
in cyclohexanone, 318.25 K	0.115
in cyclohexanone, 323.95 K	0.135
in cyclopentanone, 273.15 K	0.0441
in cyclopentanone, 279.15 K	0.0544
in cyclopentanone, 284.15 K	0.0642
in cyclopentanone, 289.15 K	0.0754
in cyclopentanone, 293.75 K	0.0871
in cyclopentanone, 299.05 K	0.102
in cyclopentanone, 303.75 K	0.117
in cyclopentanone, 308.55 K	0.134
in cyclopentanone, 313.65 K	0.154
in cyclopentanone, 318.25 K	0.174
in cyclopentanone, 323.95 K	0.201
in ethanol, 273.15 K	0.0474
in ethanol, 279.15 K	0.0599
in ethanol, 283.95 K	0.0715
in ethanol, 289.15 K	0.086
in ethanol, 293.85 K	0.102
in ethanol, 299.15 K	0.121
in ethanol, 303.45 K	0.139
in ethanol, 309.05 K	0.166
in ethanol, 313.25 K	0.189
in ethanol, 319.15 K	0.226
in ethanol, 324.15 K	0.26
in ethyl formate, 273.15 K	0.0121
in ethyl formate, 279.15 K	0.0153
in ethyl formate, 284.15 K	0.0186
in ethyl formate, 289.15 K	0.0223
in ethyl formate, 293.75 K	0.0263
in ethyl formate, 299.05 K	0.0316
in ethyl formate, 303.75 K	0.0371
in ethyl formate, 308.55 K	0.0432
in ethyl formate, 313.65 K	0.0508
in ethyl formate, 318.25 K	0.0583
in ethyl formate, 323.95 K	0.069
in isobutanol, 273.15 K	0.0521
in isobutanol, 279.15 K	0.0633
in isobutanol, 284.15 K	0.0737
in isobutanol, 289.15 K	0.0855
in isobutanol, 293.75 K	0.0976
in isobutanol, 299.05 K	0.113
in isobutanol, 303.75 K	0.129
in isobutanol, 308.55 K	0.146
in isobutanol, 313.65 K	0.166
in isobutanol, 318.25 K	0.186
in isobutanol, 323.95 K	0.213
in isopropanol, 273.15 K	0.0245
in isopropanol, 279.15 K	0.0339
in isopropanol, 283.95 K	0.0433
in isopropanol, 289.15 K	0.0561
in isopropanol, 293.85 K	0.0702
in isopropanol, 299.15 K	0.0901
in isopropanol, 303.45 K	0.109
in isopropanol, 309.05 K	0.139
in isopropanol, 313.25 K	0.166
in isopropanol, 319.15 K	0.211
in isopropanol, 324.15 K	0.257
in methanol, 273.15 K	0.0844
in methanol, 279.15 K	0.0988
in methanol, 283.95 K	0.112
in methanol, 289.15 K	0.127
in methanol, 293.85 K	0.142
in methanol, 299.15 K	0.161
in methanol, 303.45 K	0.177
in methanol, 309.05 K	0.201
in methanol, 313.25 K	0.219
in methanol, 319.15 K	0.247
in methanol, 324.15 K	0.274
in methyl acetate, 273.15 K	0.03
in methyl acetate, 279.15 K	0.0343
in methyl acetate, 284.15 K	0.0381
in methyl acetate, 289.15 K	0.0422
in methyl acetate, 293.75 K	0.0463
in methyl acetate, 299.05 K	0.0513
in methyl acetate, 303.75 K	0.056
in methyl acetate, 308.55 K	0.0611
in methyl acetate, 313.65 K	0.0668
in methyl acetate, 318.25 K	0.0722
in methyl acetate, 323.95 K	0.0794
in n-butanol, 273.15 K	0.0542
in n-butanol, 279.15 K	0.0653
in n-butanol, 284.15 K	0.0756
in n-butanol, 289.15 K	0.0873
in n-butanol, 293.75 K	0.0993
in n-butanol, 299.05 K	0.115
in n-butanol, 303.75 K	0.13
in n-butanol, 308.55 K	0.146
in n-butanol, 313.65 K	0.165
in n-butanol, 318.25 K	0.184
in n-butanol, 323.95 K	0.21
in n-propanol, 273.15 K	0.0352
in n-propanol, 279.15 K	0.047
in n-propanol, 283.95 K	0.0585
in n-propanol, 289.15 K	0.0741
in n-propanol, 293.85 K	0.0909
in n-propanol, 299.15 K	0.113
in n-propanol, 303.45 K	0.135
in n-propanol, 309.05 K	0.169
in n-propanol, 313.25 K	0.198
in n-propanol, 319.15 K	0.245
in n-propanol, 324.15 K	0.294
